The values below are quoted from earlier work in US4703106A, “Novel polypeptide and process for producing the same” (Mitsubishi Petrochemical Co., Ltd., priority 1984, dated 1987).

This data set concerns Ca^2+ concentration in blood. As to conditions: published as Japanese Provisional Patent Publication No. 123500/1985.

Positions of bridges follow the written chain, without caps; N, C: chain ends. No end group written: not given here.

In the case of “chicken CT: calcitonin extracted and purified from the ultimobranchial glands of chickens, formula (I) (CASLSTCVLGKLSQELHKLQTYPRTDVGAGTP-NH2; disulfide 1-7; ends not checked; UniProt P07660 82-113, looked up)”, the “biological activity relative to CT's of cyclostomata and fish” value was “equal to or higher than CT's of cyclostomata and fish”.
